Reference: US20100015727A1, “METHOD FOR DETERMINING TRANSPORT ACTIVITY OF A TRANSPORT PROTEIN” (BOEHRINGER INGELHEIM INTERNATIONAL GMBH, priority 2006, published 2010)

Molecular target: T1, MRP4 (Homo sapiens, UniProt O15439)
T1 construct: infected with a baculovirus construct containing the full-length cDNA encoding MRP4; made in house; host or cells: Hi5 or Sf9 insect cells (baculovirus)
T1 sequence (O15439 1-1325): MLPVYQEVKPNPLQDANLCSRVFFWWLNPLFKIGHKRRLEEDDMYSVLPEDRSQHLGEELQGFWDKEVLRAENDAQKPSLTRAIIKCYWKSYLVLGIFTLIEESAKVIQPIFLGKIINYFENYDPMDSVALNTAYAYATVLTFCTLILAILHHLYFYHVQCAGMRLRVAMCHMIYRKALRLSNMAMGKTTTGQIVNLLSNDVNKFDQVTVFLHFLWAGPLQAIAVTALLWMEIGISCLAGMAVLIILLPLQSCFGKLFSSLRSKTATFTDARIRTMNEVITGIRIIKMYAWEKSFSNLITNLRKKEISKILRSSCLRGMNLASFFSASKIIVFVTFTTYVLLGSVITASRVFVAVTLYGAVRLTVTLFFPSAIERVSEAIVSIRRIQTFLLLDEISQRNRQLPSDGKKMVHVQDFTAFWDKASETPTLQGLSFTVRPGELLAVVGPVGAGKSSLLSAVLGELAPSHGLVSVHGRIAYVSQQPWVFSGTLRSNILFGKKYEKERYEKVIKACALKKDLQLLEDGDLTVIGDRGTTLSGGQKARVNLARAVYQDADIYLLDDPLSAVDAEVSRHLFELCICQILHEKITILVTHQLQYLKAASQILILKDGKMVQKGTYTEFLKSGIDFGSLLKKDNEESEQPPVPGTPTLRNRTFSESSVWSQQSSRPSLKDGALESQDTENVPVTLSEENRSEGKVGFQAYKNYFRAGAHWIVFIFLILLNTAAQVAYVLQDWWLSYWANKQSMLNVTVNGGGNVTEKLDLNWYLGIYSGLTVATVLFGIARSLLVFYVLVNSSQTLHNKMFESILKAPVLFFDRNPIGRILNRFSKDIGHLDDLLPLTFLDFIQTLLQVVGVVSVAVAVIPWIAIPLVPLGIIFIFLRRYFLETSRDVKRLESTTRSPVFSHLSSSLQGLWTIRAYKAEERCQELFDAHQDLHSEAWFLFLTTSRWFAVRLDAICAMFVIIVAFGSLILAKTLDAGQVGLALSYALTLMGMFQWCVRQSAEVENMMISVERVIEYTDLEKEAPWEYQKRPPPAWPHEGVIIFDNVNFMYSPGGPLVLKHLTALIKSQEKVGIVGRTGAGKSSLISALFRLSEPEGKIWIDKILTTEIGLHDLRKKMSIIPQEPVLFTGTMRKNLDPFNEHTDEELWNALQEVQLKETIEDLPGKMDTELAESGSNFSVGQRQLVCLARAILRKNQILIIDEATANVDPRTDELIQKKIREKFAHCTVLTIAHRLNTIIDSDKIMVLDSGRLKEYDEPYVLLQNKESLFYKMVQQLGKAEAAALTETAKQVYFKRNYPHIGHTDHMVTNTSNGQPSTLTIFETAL
Experiment: SPA assay of MRP4 transport activity (3H-folic acid uptake into membrane vesicles)
Format: biochemical
Settings: inhibition of MRP4 transport of 3H-folic acid into membrane vesicles from baculovirus-infected insect cells; Protein A SPA beads, anti-MRP4 rabbit antiserum
Description: • 1) Membrane vesicles from insect cells (Hi5 or Sf9) infected with a baculovirus construct containing the full-length cDNA encoding MRP4 are prepared as described by van Aubel et al. (van Aubel et al., 2002) with some modifications: Hi5 cells are cultured in suspension to a cell density of 1×10^6 cells/ml in Insect-Xpress serum free insect cell medium and infected with baculovirus construct containing the full-length cDNA encoding MRP4. Three days after infection, cells are collected by centrifugation at 3000 rpm for 10 min. […] Protein concentration of the membrane preparation is determined using standard methods, e.g. the BCA protein assay (Pierce, product number 23250). • 2) Determination of transport activity of MRP4: Membrane vesicles prepared in 1) are diluted in Tris/sucrose buffer to a concentration of 3.3 μg protein/μl. […] Luminescence signals are measured with the LEADSeeker or TopCount system after 30 min, 1 h, 2 h, 4 h, or up to 24 h. • 3) Calculation of inhibitory effect of a test compound: The relative transport activities of MRP4 determined in the presence of a test compound is calculated as percentage of luminescence determined in the presence of the test compound compared to luminescence determined in the absence of the test compound.

OCCN(CCO)c1nc(N2CCCCC2)c2nc(N(CCO)CCO)nc(N3CCCCC3)c2n1 [Dipyridamole]
IC50: 35 µM
